Laboratory results as given in ChEMBL document CHEMBL4823304, “Phytochemicals from the flowers of Prunus persica (L.) Batsch: Anti-adipogenic effect of mandelamide on 3T3-L1 preadipocytes” (Bioorg Med Chem Lett, 2021).
Calls of active or inactive are those of the source. The calls are words filed in the database; no cut-off is given here.

How the values were obtained:
3T3-L1 [1] = assay: Cytotoxicity against in mouse 3T3-L1 cells assessed as reduction in cell viability at 100 uM incubated for 24 hrs by MTT assay relative to control; type: cell-based; settings: 3t3-l1, 24 h
3T3-L1 [2] = assay: Inhibition of preadipocyte differentiation in mouse 3T3-L1 cells assessed as lipid droplet accumulation at 100 uM incubated for 8 days by Oil Red O staining method relative to untreated control; type: functional
3T3-L1 [3] = assay: Inhibition of preadipocyte differentiation in mouse 3T3-L1 cells assessed as lipid droplet accumulation incubated for 8 days by Oil Red O staining method relative to untreated control; type: functional, cell-based; settings: 3T3-L1, 192 h
3T3-L1 [4] = assay: Anti-adipogenic activity against mouse 3T3-L1 cells assessed as decrease in p-ERK protein expression measured after 8 days by Western blotting analysis relative to control; type: functional, cell-based; settings: time 8.0 day
3T3-L1 [5] = assay: Anti-adipogenic activity against mouse 3T3-L1 cells assessed as decrease in ERK protein expression measured after 8 days by Western blotting analysis relative to control; type: functional, cell-based; settings: time 8.0 day
3T3-L1 [6] = assay: Anti-adipogenic activity against mouse 3T3-L1 cells assessed as decrease in p-JNK protein expression measured after 8 days by Western blotting analysis relative to control; type: functional, cell-based; settings: time 8.0 day
3T3-L1 [7] = assay: Anti-adipogenic activity against mouse 3T3-L1 cells assessed as decrease in JNK protein expression measured after 8 days by Western blotting analysis relative to control; type: functional, cell-based; settings: time 8.0 day
3T3-L1 [8] = assay: Anti-adipogenic activity against mouse 3T3-L1 cells assessed as decrease in p-P38 protein expression measured after 8 days by Western blotting analysis relative to control; type: functional, cell-based; settings: time 8.0 day
3T3-L1 [9] = assay: Anti-adipogenic activity against mouse 3T3-L1 cells assessed as decrease in P38 protein expression measured after 8 days by Western blotting analysis relative to control; type: functional, cell-based; settings: time 8.0 day
3T3-L1 [10] = assay: Anti-adipogenic activity against mouse 3T3-L1 cells assessed as decrease in C/EBPalpha protein expression measured after 8 days by Western blotting analysis relative to control; type: functional, cell-based; settings: time 8.0 day
3T3-L1 [11] = assay: Anti-adipogenic activity against mouse 3T3-L1 cells assessed as decrease in C/EBPbeta protein expression measured after 8 days by Western blotting analysis relative to control; type: functional, cell-based; settings: time 8.0 day
3T3-L1 [12] = assay: Anti-adipogenic activity against mouse 3T3-L1 cells assessed as decrease in PPARgamma protein expression measured after 8 days by Western blotting analysis relative to control; type: functional, cell-based; settings: time 8.0 day
3T3-L1 [13] = assay: Anti-adipogenic activity against mouse 3T3-L1 cells assessed as decrease in GR protein expression measured after 8 days by Western blotting analysis relative to control; type: functional, cell-based; settings: time 8.0 day

| Structure (SMILES) | Activity (3T3-L1 [1]) | Activity (3T3-L1 [2]; time 8.0 day) | Activity (3T3-L1 [2]; time 8 day) | also measured |
| --- | --- | --- | --- | --- |
| C[C@@H]1O[C@@H](OC[C@H]2O[C@@H](Oc3c(-c4ccc(O)cc4)oc4cc(O)cc(O)c4c3=O)[C@H](O)[C@@H](O)[C@@H]2O)[C@H](O)[C@H](O)[C@H]1O [NICOTIFLOROSIDE] | Non-Toxic | Active |  |  |
| O=c1c(O[C@@H]2O[C@H](CO)[C@@H](O)[C@H](O)[C@H]2O)c(-c2ccc(O)cc2)oc2cc(O)cc(O)c12 [ASTRAGALIN] | Non-Toxic | Active |  |  |
| C[C@@H]1O[C@@H](Oc2c(-c3ccc(O)cc3)oc3cc(O)cc(O)c3c2=O)[C@H](O)[C@H](O)[C@H]1O [AFZELIN] | Non-Toxic | Active |  |  |
| COC(=O)/C=C/c1ccc(O)c(O)c1 [METHYLCAFFEATE] | Non-Toxic |  | 34.67% |  |
| O=c1ccn([C@@H]2O[C@H](CO)[C@@H](O)[C@H]2O)c(=O)[nH]1 [URIDINE] | Non-Toxic | Active |  |  |
| NC(=O)[C@H](O[C@@H]1O[C@H](CO[C@@H]2O[C@H](CO)[C@@H](O)[C@H](O)[C@H]2O)[C@@H](O)[C@H](O)[C@H]1O)c1ccccc1 | Non-Toxic | Active |  |  |
| O=C1C[C@@H](c2ccc(O)cc2)Oc2cc(O)cc(O)c21 [NARINGENIN] | Non-Toxic |  | 44.21% |  |
| O=C(/C=C/c1ccc(O)c(O)c1)O[C@@H]1C[C@](O)(C(=O)O)C[C@@H](O)[C@H]1O [CHLOROGENIC ACID] | Non-Toxic |  | 58.44% |  |
| O[C@@H]1[C@@H](O)[C@H](OCc2ccccc2)O[C@H](CO[C@H]2OC[C@H](O)[C@@H](O)[C@@H]2O)[C@H]1O | Non-Toxic | Active |  |  |
| NC(=O)[C@H](O)c1ccccc1 | Non-Toxic |  | 12.23% | IC50 (3T3-L1 [3]): 36 µM; Activity (3T3-L1 [4]): Dose-Dependent Effect; Activity (3T3-L1 [5]): Dose-Dependent Effect; Activity (3T3-L1 [6]): Dose-Dependent Effect; Activity (3T3-L1 [7]): Dose-Dependent Effect; Activity (3T3-L1 [8]): Dose-Dependent Effect; Activity (3T3-L1 [9]): Dose-Dependent Effect; Activity (3T3-L1 [10]): Dose-Dependent Effect; Activity (3T3-L1 [11]): Dose-Dependent Effect; Activity (3T3-L1 [12]): Dose-Dependent Effect; Activity (3T3-L1 [13]): Dose-Dependent Effect |
| O=C(O)[C@H](O[C@@H]1O[C@H](CO)[C@@H](O)[C@H](O)[C@H]1O)c1ccccc1 | Non-Toxic | Active |  |  |
| O=C1C[C@@H](c2ccc(O)cc2)Oc2cc(O[C@@H]3O[C@H](CO)[C@@H](O)[C@H](O)[C@H]3O)cc(O)c21 [PRUNIN] | Non-Toxic | Active |  |  |
| NC(=O)[C@H](O[C@@H]1O[C@H](CO)[C@@H](O)[C@H](O)[C@H]1O)c1ccccc1 | Non-Toxic | Active |  |  |
| COc1cc(/C=C/C(=O)O)ccc1O [FERULATE] | Non-Toxic |  | 58.22% |  |
